Experimental data as given in patent US9409884B2 (Rigel Pharmaceuticals, Inc., priority 2012, dated 2016).
pEC50: −log10 of the molar value.

Molecular target: AMPK
Assay: AMPK activation, enzyme-linked immunosorbent assay
Type: biochemical
Conditions: Table 8, compounds of Table 1
Procedure, shortened: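 AMPK activation by test compounds was measured by enzyme-linked immunosorbent assay.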

| pEC50 | Compound |
| --- | --- |
| > 7.00 | CN(C(=O)c1cc2cc(OC3CCN(c4ccc(C(F)(F)F)cc4)CC3)ccc2o1)C1CCN(Cc2ccccn2)CC1 [Compound 1-117, N-methyl-N-(1-(pyridin-2-ylmethyl)piperidin-4-yl)-5-(1-(4-(trifluoromethyl)phenyl)piperidin-4-yloxy)benzofuran-2-carboxamide] |
| > 7.00 | N#Cc1ccc(CN2CCC(NC(=O)c3cncc(OC4CCN(c5ccc(C(F)(F)F)cc5)CC4)c3)CC2)cc1 [Compound 1-17, N-(1-(4-cyanobenzyl)piperidin-4-yl)-5-(1-(4-(trifluoromethyl)phenyl)piperidin-4-yloxy)nicotinamide] |
| 6.30 to 7.00 | O=C(NC1CCN(S(=O)(=O)c2cccnc2)CC1)c1cc2ccc(OC3CCN(c4ccc(C(F)(F)F)cc4)CC3)cc2o1 [Compound 1-106, N-(1-(pyridin-3-ylsulfonyl)piperidin-4-yl)-6-(1-(4-(trifluoromethyl)phenyl)piperidin-4-yloxy)benzofuran-2-carboxamide] |
| > 7.00 | N#Cc1ccccc1CN1CCC(NC(=O)c2cc3ccc(OC4CCN(c5ccc(C(F)(F)F)cc5)CC4)cc3o2)CC1 [Compound 1-98, N-(1-(2-cyanobenzyl)piperidin-4-yl)-6-(1-(4-(trifluoromethyl)phenyl)piperidin-4-yloxy)benzofuran-2-carboxamide] |
| > 7.00 | N#Cc1ccc(CN2CCC(NC3CCc4cc(OC5CCN(c6ccc(C(F)(F)F)cc6)CC5)ccc43)CC2)cc1 (stereo not drawn) [Compound 1-160, 4-((4-(5-(1-(4-(trifluoromethyl)phenyl)piperidin-4-yloxy)-2,3-dihydro-1H-inden-1-ylamino)piperidin-1-yl)methyl)benzonitrile] |
| > 7.00 | Cc1c(C(=O)NC2CCN(Cc3ccncc3)CC2)oc2cc(OC3CCN(c4ccc(C(F)(F)F)cc4)CC3)ccc12 [Compound 1-65, 3-methyl-N-(1-(pyridin-4-ylmethyl)piperidin-4-yl)-6-(1-(4-(trifluoromethyl)phenyl)piperidin-4-yloxy)benzofuran-2-carboxamide] |
| 6.30 to 7.00 | O=C(NC1CCN(Cc2ccc(F)cc2)CC1)c1cc(OC2CCN(c3ccc(C(F)(F)F)cc3)CC2)ccn1 [Compound 1-29, N-(1-(4-fluorobenzyl)piperidin-4-yl)-4-(1-(4-(trifluoromethyl)phenyl)piperidin-4-yloxy)picolinamide] |

Same assay, conditions: Table 9, compounds of Table 2

| pEC50 | Compound |
| --- | --- |
| 5.30 to 6.00 | O=C(NC1CCN(S(=O)(=O)c2ccc(F)cc2)CC1)c1ccc2[nH]c3c(c2c1)CN(Cc1ccc(C(F)(F)F)cc1)CC3 [Compound 2-28, N-(1-(4-fluorophenylsulfonyl)piperidin-4-yl)-2-(4-(trifluoromethyl)benzyl)-2,3,4,5-tetrahydro-1H-pyrido[4,3-b]indole-8-carboxamide] |
| 4.30 to 5.00 | O=C(NC1CCN(C(=O)c2ccc(F)cc2)CC1)c1ccc2[nH]c3c(c2c1)CN(c1ccc(F)cc1)CC3 [Compound 2-39, N-(1-(4-fluorobenzoyl)piperidin-4-yl)-2-(4-fluorophenyl)-2,3,4,5-tetrahydro-1H-pyrido[4,3-b]indole-8-carboxamide] |
| 5.30 to 6.00 | N#Cc1ccc(CN2CCC(NC(=O)c3ccc4[nH]c5c(c4c3)CN(S(=O)(=O)c3ccc(C(F)(F)F)cc3)CC5)CC2)cc1 [Compound 2-24, N-(1-(4-cyanobenzyl)piperidin-4-yl)-2-(4-(trifluoromethyl)phenylsulfonyl)-2,3,4,5-tetrahydro-1H-pyrido[4,3-b]indole-8-carboxamide] |

Same assay, conditions: Table 11, compounds of Table 4

| pEC50 | Compound |
| --- | --- |
| 5.30 to 6.00 | O=C(N[C@H]1CCN(Cc2ccncc2)C1)c1ccc(C(=O)N2CCN(c3ccc(Cl)cc3)CC2)cn1 [Compound 4-5, (S)-5-(4-(4-chlorophenyl)piperazine-1-carbonyl)-N-(1-(pyridin-4-ylmethyl)pyrrolidin-3-yl)picolinamide] |
| > 6.30 | O=C(NC1CCN(Cc2ccc(OC(F)(F)F)cc2)C[C@H]1F)c1ccc(C(=O)N2CCN(c3ccc(S(=O)(=O)N4CCCC4)cc3)CC2)nc1 (stereo partly drawn) [Compound 4-14, N-((3,4-trans)-3-fluoro-1-(4-(trifluoromethoxy)benzyl)piperidin-4-yl)-6-(4-(4-(pyrrolidin-1-ylsulfonyl)phenyl)piperazine-1-carbonyl)nicotinamide] |

Same assay, conditions: Table 12, compounds of Table 5

| pEC50 | Compound |
| --- | --- |
| 5.00 to 6.00 | CC(C)(C)OC(=O)N1CCC(Oc2ccc(C(=O)NC3CCN(Cc4ccccc4)CC3)cc2F)CC1 [Compound 5-92, tert-butyl 4-(4-(1-benzylpiperidin-4-ylcarbamoyl)-2-fluorophenoxy) piperidine-1-carboxylate] |
| 5.00 to 6.00 | O=C(NC1CCN(Cc2ccccc2)CC1)c1ccc(OC2CCN(c3cccs3)CC2)c(Cl)c1 [Compound 5-10, N-(1-benzylpiperidin-4-yl)-3-chloro-4-(1-(thiophen-2-yl)piperidin-4-yloxy)benzamide] |
| > 6.00 | O=C(NC1CCN(C(=O)c2ccncc2)CC1)c1ccc(OC2CCN(c3ccc(C(F)(F)F)cc3)CC2)c(F)c1 [Compound 5-40, 3-fluoro-N-(1-isonicotinoylpiperidin-4-yl)-4-(1-(4-(trifluoromethyl)phenyl)piperidin-4-yloxy)benzamide] |
| 4.70 to 5.00 | O=C(NC1CCN(Cc2ccccc2)CC1)c1ccc(OC2CCN(Cc3ccccc3C(F)(F)F)CC2)c(Cl)c1 [Compound 5-24, N-(1-benzylpiperidin-4-yl)-3-chloro-4-(1-(2-(trifluoromethyl)benzyl)piperidin-4-yloxy)benzamide] |
| > 6.00 | O=C(NC1CCN(Cc2ccccc2)CC1)c1ccc(OC2CCN(Cc3ccc(F)cc3)CC2)c(F)c1 [Compound 5-61, N-(1-benzylpiperidin-4-yl)-3-fluoro-4-(1-(4-fluorobenzyl)piperidin-4-yloxy)benzamide] |

Same assay, conditions: Table 13, compounds of Table 6

| pEC50 | Compound |
| --- | --- |
| > 7.00 | COc1ccc(CN2CCC(NC(=O)c3cc4cc(C(=O)N5CCN(c6ccc(Cl)cc6Cl)CC5)ccc4o3)CC2)cc1 [Compound 6-121, 5-(4-(2,4-dichlorophcnyl)piperazine-1-carbonyl)-N-(1-(4-methoxybenzyl)piperidin-4-yl)benzofuran-2-carboxamide] |
| > 7.00 | N#Cc1ccc(N2CCC(C(=O)Nc3ccc4oc(C(=O)N5CCC(Oc6ccc(C(F)(F)F)cc6)CC5)cc4c3)CC2)cc1 [Compound 6-22, 1-(4-cyanophenyl)-N-(2-(4-(4-(trifluoromethyl)phenoxy)piperidine-1-carbonyl)benzofuran-5-yl)piperidine-4-carboxamide] |
| > 7.00 | CC(=O)c1ccc(Oc2ccc(NC(=O)c3cc4ccc(C(=O)N5CCN(Cc6ccc(S(C)(=O)=O)cc6)CC5)cc4o3)cn2)cc1 [Compound 6-6, N-(6-(4-acetylphenoxy)pyridin-3-yl)-6-(4-(4-(methylsulfonyl)benzyl)piperazine-1-carbonyl) benzofuran-2-carboxamide] |
| > 7.00 | N#Cc1ccc(CN2CCC(NC(=O)c3cc4cc(C(=O)N5CCN(c6ccc(F)cc6)CC5)ccc4o3)CC2)cc1 [Compound 6-86, N-(1-(4-cyanobenzyl)piperidin-4-yl)-5-(4-(4-fluorophenyl)piperazine-1-carbonyl)benzofuran-2-carboxamide] |
| > 7.00 | COc1ccc(CN2CCC(NC(=O)c3cc4ccc(C(=O)N5CCN(Cc6ccc(S(C)(=O)=O)cc6)CC5)cc4o3)CC2)cc1F [Compound 6-5, N-(1-(3-fluoro-4-methoxybenzyl)piperidin-4-yl)-6-(4-(4-(methylsulfonyl)benzyl)piperazine-1-carbonyl) benzofuran-2-carboxamide] |

Same assay, conditions: Table 14, compounds of Table 7

| pEC50 | Compound |
| --- | --- |
| 5.00 to 6.00 | COc1ccc(C(=O)C2CCN(C(=O)c3ccc(C(=O)NC4CCN(Cc5ccc(-n6ccnc6)cc5)C[C@H]4F)cn3)CC2)cc1 (stereo partly drawn) [Compound 7-42, N-((3,4-trans)-1-(4-(1H-imidazol-1-yl)benzyl)-3-fluoropiperidin-4-yl)-6-(4-(4-methoxybenzoyl)piperidine-1-carbonyl)nicotinamide] |
| > 6.00 | COc1ccc(C(=O)C2CCN(C(=O)c3ccc(C(=O)N[C@@H]4CCN(Cc5ccc(C#N)cc5)C[C@H]4F)cn3)CC2)cc1 (single isomer, unassigned) [Compound 7-106] |
| > 6.00 | COc1ccc(C(=O)C2CCN(C(=O)c3ccc(C(=O)NC4CCN(Cc5cccc(C(F)(F)F)c5)C[C@H]4F)cn3)CC2)cc1 (stereo partly drawn) [Compound 7-32, N-((3,4-trans)-3-fluoro-1-(3-(trifluoromethyl)benzyl)piperidin-4-yl)-6-(4-(4-methoxybenzoyl)piperidine-1-carbonyl)nicotinamide] |
| 4.70 to 5.00 | CCNS(=O)(=O)c1ccc(CN2CCN(C(=O)c3ccc(C(=O)N4CCC(C(=O)c5ccc(OC)cc5)CC4)nc3)CC2)cc1 [Compound 7-91, N-ethyl-4-((4-(6-(4-(4-methoxybenzoyl)piperidine-1-carbonyl)nicotinoyl)piperazin-1-yl)methyl)benzenesulfonamide] |
| > 6.00 | COc1ccc(C(=O)C2CCN(C(=O)c3ccc(C(=O)Nc4ccc(Oc5ccc(S(F)(F)(F)(F)F)cc5)nc4)nc3)CC2)cc1 [Compound 7-3, 5-(4-(4-methoxybenzoyl)piperidine-1-carbonyl)-N-(6-(4-(pentafluorosulfanyl)phenoxy)pyridin-3-yl)picolinamide] |
| > 6.00 | COc1ccc(C(=O)C2CCN(C(=O)c3ccc(C(=O)NC4CCN(Cc5ccc(-n6cccn6)cc5)C[C@H]4F)cn3)CC2)cc1 (stereo partly drawn) [Compound 7-41, N-((3,4-trans)-1-(4-(1H-pyrazol-1-yl)benzyl)-3-fluoropiperidin-4-yl)-6-(4-(4-methoxybenzoyl)piperidine-1-carbonyl)nicotinamide] |
| 5.00 to 6.00 | Cn1cnc2cc(OC3CCN(C(=O)c4ccc(C(=O)NC5CCN(Cc6ccc(C#N)cc6)CC5)cn4)CC3)ccc21 [Compound 7-38, N-(1-(4-cyanobenzyl)piperidin-4-yl)-6-(4-(1-methyl-1H-benzo[d]imidazol-5-yloxy)piperidine-1-carbonyl)nicotinamide] |
| > 6.00 | COc1ccc(C(=O)C2CCN(C(=O)c3ccc(C(=O)NC4CCN(Cc5ccc(OC(F)(F)F)cc5)C[C@H]4F)cn3)CC2)cc1 (stereo partly drawn) [Compound 7-33, (3,4-trans)-3-fluoro-4-(6-(4-(4-methoxybenzoyl)piperidine-1-carbonyl)nicotinamido)-1-(4-(trifluoromethoxy)benzyl) piperidinium] |
